Among the data in PubChem BioAssay (NCI) are TGI and GI50 values, retold here.

Broadly, the TGI is the concentration at which net growth stops. By GI50 is commonly meant the concentration at which growth is held to half of that of the control.

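Test compounds were applied to cells in 96-well plates for 48 hours at 5 doses. Here, GI50 denotes the concentration required for 50% inhibition of growth. TGI marks complete inhibition of growth.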

Assay in all cases: DTP human tumour cell line panel, 48 h
The subject of assay [1] is MOLT-4 leukemia.
Assay [2] relates to NCI-H522 lung.
Assay [3] relates to HOP-92 NSCLC.
Assay [4] has as its system TK-10 renal.
In assay [5] the test system is OVCAR-3 ovarian.
Assay [6] relates to A498 renal.
Assay [7] concerns K-562 leukemia.
Assay [8] concerns KM12 colon.
Assay [9] relates to 786-0 renal.

As to `Nn1c(-c2cccc(Cl)c2)nc2ccccc2c1=O`, the TGI in [1], in assay [2], in assay [3], in assay [4], in assay [5] and in assay [6] was more than 100 µM in each case. Moreover, the TGI in assay [7], in [8] and in [9] was more than 100 µM throughout.

`CCC[CH2][Sn]([CH2]CCC)([O]C(=O)c1cc(F)ccc1F)[O]C(=O)c1cc(F)ccc1F`: the GI50 in assay [1] is 0.347 µM; in assay [2], 0.108 µM; in assay [3], 1.26 µM; in [4], 1.64 µM; in assay [5], 1.33 µM; in [6], 1.25 µM. For the same compound, the concentration for 50% growth inhibition (GI50) is 0.294 µM in assay [7], 1.6 µM in [8] and 1.15 µM in assay [9]. The TGI in assay [1] turned out to be 2.01 µM; in assay [2], 0.23 µM; in [3], 2.52 µM; in assay [4] it was 3.01 µM; in assay [5] it was 2.61 µM; in [6], 2.57 µM. The TGI in assay [7] is 1.35 µM; in assay [8], 3.28 µM; in assay [9], 2.37 µM.

`Cc1ccc(C2[C@H]3C(=O)N(c4ccc(Cc5ccc(N6C(=O)[C@@H]7ON(c8ccccc8)C(c8ccc(C)cc8)[C@@H]7C6=O)cc5)cc4)C(=O)[C@H]3ON2c2ccccc2)cc1` (stereo not given in full): the TGI in assay [1], in [3], in assay [5], in assay [6], in assay [7] and in [8] was more than 100 µM each time. The TGI in assay [9] is more than 100 µM.

Regarding `C[C@]12Cc3conc3C(O)=C1CC[C@@H]1C2CC[C@@]2(C)C1CC[C@]2(C)O` (stereo not given in full), the TGI in assay [1] worked out at 42.3 µM; in [3], 61.5 µM; in assay [4], 71.9 µM; in assay [5], 80.7 µM; in [6] it was 51.9 µM; in [7], 87.8 µM. Also, the TGI in assay [8] was 64.9 µM; in [9] it was more than 100 µM.

With `C[C@]12CC(C=O)C(=O)C(O)=C1CC[C@@H]1C2CC[C@@]2(C)C1CC[C@]2(C)O` (stereo not given in full), the total growth inhibition concentration (TGI) is 52 µM in assay [1]; 33.4 µM in [3]; 99.5 µM in assay [4]; 64.7 µM in assay [5]; 45.9 µM in [6]; more than 100 µM in [7]. For the same compound, the TGI in assay [8] was 74.6 µM; in [9], 44.4 µM.

On to `NC(=O)C(=O)C1C(=O)N(c2ccccc2)N=C1N` (stereo not given), for which the TGI in [1], in assay [2], in assay [3], in [4], in assay [5] and in [7] was more than 100 µM in each case. The TGI in assay [8] and in [9] was more than 100 µM each time.

For `Cc1cc(Cl)ccc1N=C1NC(=O)C(CC(=O)Nc2cccc(C)c2C)S1` (stereo not given), the TGI in assay [1] was more than 100 µM; in [3], 26.5 µM; in assay [4], more than 100 µM; in assay [5], more than 100 µM; in assay [6] it was 50.5 µM; in assay [7], more than 100 µM. Besides, the values for the TGI in assay [8] and in assay [9] were more than 100 µM and 47.9 µM, respectively.

Turning to `COc1cc([C@@H]2OC(=O)C3C2C(=O)O[C@H]3c2ccc(O)c(OC)c2)ccc1O` (stereo not given in full), the TGI in assay [1], in assay [3], in assay [4], in assay [5], in assay [6] and in assay [7] was more than 100 µM each time. The TGI in assay [8] and in [9] was more than 100 µM in each case.

With `O=C(NCCCl)Nc1ccccc1`, the TGI in assay [1], in [2], in assay [3], in [5], in assay [6] and in assay [7] was more than 100 µM in each case. Also, the TGI in assay [8] and in [9] was more than 100 µM in each case.

On to `CC(C)N1C(C)[C@@H](c2ccccc2)O[P@@]1(=O)CC1=CCCCC1` (stereo not given in full), for which the concentration for total growth inhibition (TGI) in [1], in assay [2], in assay [3], in assay [4], in [5] and in assay [6] was more than 100 µM in each case. Moreover, the TGI in assay [7], in assay [8] and in assay [9] was more than 100 µM in each case.

Regarding `O=[N+]([O-])c1cccc(S(=O)(=O)N/N=C/c2cc(I)cc([N+](=O)[O-])c2O)c1`, the TGI is 81.5 µM in assay [1]; 35.9 µM in assay [2]; 35.1 µM in assay [3]; 95.2 µM in assay [4]; 43.9 µM in [5]; more than 100 µM in assay [6]. The results for the total growth inhibition concentration (TGI) in assay [7], in assay [8] and in assay [9] were 58.4 µM, more than 100 µM and more than 100 µM, respectively.

As for `CCCCCCCCC(C)CCCCCCCCC(=O)OCC(COP(=O)([O-])OCC[N+](C)(C)C)OC(=O)CCCCCCCCC(C)CCCCCCCC` (stereo not given), the TGI in [1], in assay [2], in assay [3], in assay [4], in [5] and in assay [6] was more than 100 µM in each case. Also, the TGI in assay [7], in assay [8] and in assay [9] was more than 100 µM each time.

With `N#CC(C(=N/O)/C(=N\O)C(C#N)c1ccccc1)c1ccccc1` (stereo not given), the TGI in assay [1], in assay [2], in assay [3], in [4], in [5] and in assay [6] was more than 100 µM in each case. In addition, the total growth inhibition concentration (TGI) in assay [7], in assay [8] and in [9] was more than 100 µM each time.

For the compound `O=[N+]([O-])c1ccc(C2SCc3nc4ccccc4n32)cc1` (stereo not given), the TGI was more than 100 µM in assay [1]; 91.3 µM in assay [3]; more than 100 µM in assay [4]; more than 100 µM in assay [6]; more than 100 µM in assay [7]; more than 100 µM in assay [8]. This compound also showed a TGI in assay [9] of more than 100 µM.
